The NIST ThermoML archive (doi:10.1016/j.jct.2018.08.012)
± gives the expanded uncertainty stated by the source.

Conditions: for mass density: 298 K, 101.33 kPa, X-ray diffraction; for Triple point temperature: DSC

Row | Compound | mass density (Crystal 3) [kg/m3] | Normal melting temperature (Crystal 1, DTA) [°C] | Triple point temperature (Crystal 2) [K] | Triple point temperature (Crystal 3) [K] | mass density (Crystal) [kg/m3]
1 | [Ag+].[Ag+].[Te-2] [silver(I) telluride] | 8321 ± 2 | 962 ± 4 | 1075 ± 4 | 418 ± 4 | 
2 | [Ag+].[Ag+].[Ag+].[Ag+].[I-].[I-].[I-].[I-].[I-].[Rb+] [rubidium silver iodide (Ag4RbI5)] |  |  |  |  | 5389 ± 2
